Literature values, collected in paper PMC13427755 (Nature Communications, 2026).
Read-outs that look alike come from different tables or passages of the source.

Test system: SP-D
Conditions: at 12 weeks, cited from earlier work

Compound	decrease in SP-D (CAPACITY study of pirfenidone) [%]	decrease in SP-D (INMARK study of nintedanib) [%]
Cc1ccc(=O)n(-c2ccccc2)c1 [pirfenidone]	5	–
COC(=O)c1ccc2c(c1)NC(=O)/C2=C(\Nc1ccc(N(C)C(=O)CN2CCN(C)CC2)cc1)c1ccccc1 [nintedanib]	–	4
